Columns and labels:
[1] = Open-label trial of oral vancomycin in children with regressive onset autism; type: in vivo, human
From the text: To explore whether our index case's improvement represented a true therapeutic effect, institutional human investigation committee approval was obtained for an open-label trial in a narrowly defined subgroup of autistic children. Eleven children (10 males, 1 female; age range: 43-84 months) were enrolled. Inclusion criteria for the study were derived from our central hypothesis and index case characteristics. They include 1) Meets diagnostic criteria for Autistic Disorder (DSM IV 299.00); 2) Other genetic and medical diagnoses have been adequately evaluated and ruled out; 3) Definable, rapid onset after 12 months of age; 4) Antecedent antimicrobial use (<2 months of autism symptom onset); 5) Persistent loose stool history, with diarrhea onset before autism symptoms; 6) Symptoms for <4 years; 7) Child is 2-8 years of age; 8) No evidence of any significant medical problem that might complicate treatment such as renal, cardiac or pulmonary disease, severe enterocolitis (visible blood or pus in the stool), or chronic infection (e.g., tuberculosis); and 9) Clinically static for 3 months (no new neuroleptic, seizure, or other medications), with no elective changes during the study, and 10) No antimicrobial use for at least 2 months prior to entry into the study. All children had diarrhea and regressive onset of autistic features (occurring at a mean of 17.7±3.4 months) as previously defined in the literature.
The Developmental Profile II provided descriptive developmental levels to contrast with developmental age. […] The Childhood Autism Rating Scale (CARS) was also administered. The CARS is a 15-item behavioral rating scale developed to identify children with autism, and to distinguish them from developmentally handicapped children without the autism syndrome. Based upon CARS diagnostic categories, six children met the criteria for severe autism, two for moderate autism, and three for mild autism. The vancomycin dose was 500 mg/day given orally as a liquid (500 mg/6 ml), divided into 2 ml TID for eight weeks. This was followed by four weeks of oral treatment with a probiotic mixture of Lactobacillus acidophilus, L. bulgaricus, and Bifidobacterium bifidum (40×10^9 cfu/ml).
Two measures of potential improvement were examined: I) Children were videotaped for 30 minutes at baseline and once during therapy in a playroom environment. At each session, the child was directed to play with a series of puzzles, books, blocks, and dolls by the mother and then by the evaluator. At the end of the trial, a clinical child psychologist (who was provided with a brief explanation of our working hypothesis) compared coded, paired videotapes of 10 of the 11 children studied (video was not available for one child). The psychologist viewed each pair of tapes and scored them. […] 2) Behavior and communication analog rating scales were completed by the study physician at baseline, during therapy, and at follow-up in a manner similar to previously validated methods for other disease states. Results are presented as median scores to account for potential non-linear score increment.

[2] = oral administration; cited from earlier work
[3] = Index case: 12 week therapeutic trial of oral vancomycin; type: in vivo, human; conditions: 125 mg QID oral, 12 weeks; person
Protocol: […] Diarrhea began after three 10 day courses of broad spectrum antimicrobials prescribed over a six week period for “chronic otitis media.” There was no blood or pus in the stool nor associated constitutional symptoms. There was profound behavioral and developmental deterioration, along with emergence of severe autistic features.
A 12 week therapeutic trial of oral vancomycin (125 mg QID) was begun with expanded observations by a pediatric neuropsychologist pre- and post-treatment. At baseline, the child was not on a special diet nor was […] taking any vitamin supplements. Three days after initiation of the vancomycin therapy, a hyperactivity pattern emerged which lasted for four days. […] became affectionate and relatively calm. […] promptly achieved toilet training and increased vocabulary. Follow-up behavioral observations after eight weeks of therapy noted an increase in on-task performance, compliance with parental requests, awareness of environmental surroundings, and persistence when engaging in positive activities. A significant reduction in repetitive and self-stimulatory behaviors was also noted. The child's educational therapies remained unchanged for both six months before and during the vancomycin trial. Shortly after vancomycin discontinuation, behavioral deterioration was observed. Though still improved over baseline, […] eventually lost most of the initial gains.

Desulfovibrio = experiment: Antimicrobial susceptibility testing, CLSI serial two-fold plate dilution; type: cell-based; conditions: for MIC: Desulfovibrio

CN[C@H](CC(C)C)C(=O)N[C@H]1C(=O)N[C@@H](CC(N)=O)C(=O)N[C@H]2C(=O)N[C@H]3C(=O)N[C@H](C(=O)N[C@H](C(=O)O)c4cc(O)cc(O)c4-c4cc3ccc4O)[C@H](O)c3ccc(c(Cl)c3)Oc3cc2cc(c3O[C@@H]2O[C@H](CO)[C@@H](O)[C@H](O)[C@H]2O[C@H]2C[C@](C)(N)[C@H](O)[C@H](C)O2)Oc2ccc(cc2Cl)[C@H]1O [Vancomycin]
1 µg/mL: MIC (Desulfovibrio; Desulfovibrio type strain 29098^T)
eight of ten: Blinded assessment of coded, paired videotapes: children with improvement during therapy ([1]; 500 mg/day orally for eight weeks, no change in one, possible deterioration in one)
2-5,000 mcg/gm: Fecal levels after oral administration [2]
two: Time to substantial behavioral deterioration after discontinuance ([1]; reported by most parents, telephone follow-up)
not very active on a weight basis: MIC against Desulfovibrio, summary in words (Desulfovibrio; discussion of Table 14)
six: Children with brief (1-4 days) period of hyperactivity ([1]; within three days of initiating antibiotic treatment, eleven children enrolled)
> 512 µg/mL: MIC (Desulfovibrio; Desulfovibrio strain 4019) | MIC (Desulfovibrio; Desulfovibrio strain 8381) | MIC (Desulfovibrio; Desulfovibrio strain 8907) | MIC (Desulfovibrio; Desulfovibrio strain 8933) | MIC (Desulfovibrio; Desulfovibrio strain 8951) | MIC (Desulfovibrio; Desulfovibrio strain 9070) | MIC (Desulfovibrio; Desulfovibrio strain 9120) | MIC (Desulfovibrio; Desulfovibrio strain 9706) | MIC (Desulfovibrio; Desulfovibrio strain 11094) | MIC (Desulfovibrio; Desulfovibrio strain 11232) | MIC (Desulfovibrio; Desulfovibrio strain 11346) | MIC (Desulfovibrio; Desulfovibrio strain 11437) | MIC (Desulfovibrio; Desulfovibrio strain 11568) | MIC (Desulfovibrio; Desulfovibrio strain 11623) | MIC (Desulfovibrio; Desulfovibrio strain 11717) | MIC (Desulfovibrio; Desulfovibrio strain 11789) | MIC (Desulfovibrio; Desulfovibrio strain 11830) | MIC (Desulfovibrio; Desulfovibrio strain 11949) | MIC (Desulfovibrio; Desulfovibrio strain 13966) | MIC (Desulfovibrio; Desulfovibrio type strain 7757^T)
256 µg/mL: MIC (Desulfovibrio; Desulfovibrio strain 8236) | MIC (Desulfovibrio; Desulfovibrio strain 10831) | MIC (Desulfovibrio; Desulfovibrio strain 11081) | MIC (Desulfovibrio; Desulfovibrio strain 11378) | MIC (Desulfovibrio; Desulfovibrio strain 12379)
returned towards baseline: Analog ratings at long-term follow-up ([1]; two to eight months after discontinuance, in all but one child)
512 µg/mL: MIC (Desulfovibrio; Desulfovibrio strain 9976)
improvement: Analog rating scale, communication ([1]; unblinded, group as a whole, Wilcoxon Signed Ranks Z=2.9 p=0.003) | Analog rating scale, behavior ([1]; unblinded, group as a whole, Wilcoxon Signed Ranks Z=-2.9, p=0.003)
rapid and dramatic clinical improvement: Clinical outcome of index case [3]
